Converted amounts (≈) assume the structure as drawn.
Legend:
[1] = test system: NIH/3T3 cells (mouse embryonic fibroblast cell line); experiment: MTT test using NIH/3T3 cells; type: cell-based; conditions: incubation 50 hours at 37° C.
Description: Following procedure by MTT assay of DESCRIPTION OF EMBODIMENTS (4), after incubation of NIH/3T3 cells (mouse embryonic fibroblast cell line) for 50 hours at 37° C., cell viability was examined.
This test is a quantitative colorimetric method to determine cell proliferation. It utilizes the yellow tetrazolium salt [3-(4,5-Dimethylthiazol-2-yl)-2,5-diphenyltetrazolium-bromide] which is metabolized by mitochondrial succinic dehydrogenase activity of proliferating cells to yield a purple formazan reaction product.
The formazan is then solubilized by isopropyl alcohol, and the concentration determined by optical density at 570 nm and cell survival was calculated using the following formula: Cell survival (%)=((As−Ab)/(Ac−Ab))×100
Where, As=absorbance of the sample, Ac=absorbance of the control well […] and Ab=absorbance of the blank well.
1. Plate cells into 96-well tissue culture plates. Cells should be seeded at densities of 10,000 cells per well since they will reach optimal population densities within 24 to 48 hours.
2. Carry out the experiment by adding DDMC/PTX or PTX into appropriate well. The final volume of tissue culture medium in each well is 0.1 mL, and the medium may contain up to 10% Fetal Bovine Serum.
3. Use one vial of MTT solution for each 96-well plate assay.
4. Add 10 μL MTT solution to each well. […]
7. Read absorbance at 570 nm cell survival (%)=((As−Ab)/(Ac−Ab))×100

[2] = test system: B16F10 melanoma cells; experiment: Anti-tumor effects and survival in B16F10 tumor-bearing C57BL/6 mice; type: in vivo, mouse
Description: In vivo analysis for melanoma cells is investigated by C57BL/6 female mouse. Anti-tumor effects and survival rates were investigated in tumor-bearing mice.
To evaluate the anti-tumor effects of DMMC/PTX complex, tumor-bearing mice were prepared by inoculating B16F10 melanoma cells S.C onto the back of C57BL/6 female mouse (2.0×10^6 cells/mouse). At average 1885 mm^3 of tumor volume, 12 days after inoculation, paclitaxel (PTX), DMMC/PTX4 (particle size 50 nm), DMMC/PTX5 (particle size 290 nm), and […] were administrated by I.P. injection three times (at a dose of 10 mg PXL/kg, on days 12, 14, and 16). Tumor size was measured with a digital vernier caliper and the volume was calculated using the relation V (mm^3)=(a×b^2)/2 where a is the longer, and b is the shorter diameter. The survival periods also monitored at 2 day intervals.
The tumor growth inhibitory activities were evaluated using B16F10 in xeno-graft tumor-bearing C57BL/6 mice. The tumors rapidly grew in size when the mice were treated with saline and PTX. […] The mean tumor volumes increase rate in the PTX, […], DDMC/PTX4 and DDMC/PTX5 groups were 1.85, 1.84, 1.39 and 1.53, respectively.

[3] = I.P. three times, 10 mg PXL/kg on days 12, 14, 16, B16F10 tumor-bearing C57BL/6 mice

CC(=O)O[C@H]1C(=O)[C@@]2(C)[C@H]([C@H](OC(=O)c3ccccc3)[C@]3(O)C[C@H](OC(=O)[C@H](O)[C@@H](NC(=O)c4ccccc4)c4ccccc4)C(C)=C1C3(C)C)[C@]1(OC(C)=O)CO[C@@H]1C[C@@H]2O [control 1, paclitaxel]
IC50 ([1]; Mus musculus, NIH3T3, 50 h, read-out: IC50 (μg/ml), MTT): 3 µg/mL (≈ 3.51 µM)

CC(=O)O[C@H]1C(=O)[C@@]2(C)[C@H]([C@H](OC(=O)c3ccccc3)[C@]3(O)C[C@H](OC(=O)[C@H](O)[C@@H](NC(=O)c4ccccc4)c4ccccc4)C(C)=C1C3(C)C)[C@]1(OC(C)=O)CO[C@@H]1C[C@@H]2O [control 2, paclitaxel]
IC50 (μg/ml), MTT [1]: 4.5 µg/mL (≈ 5.27 µM)

paclitaxel [PTX]
mean tumor volumes increase rate [2, 3]: 1.85 | median survival time (50%, MST) [2, 3]: 176 h | T/C of median survival time ([2]; relative to serine (saline) group = 1.0): 1.46
